Our source for the IC50 values is patent publication US12503484B2, “Androstane derivatives with activity as pure or predominantly pure stimulators of SERCA2a for the treatment of heart failure” (Seismic Pharmaceuticals, priority 2019, dated 2025).

The experiment concerns the target dog renal Na^+/K^+ ATPase (Canis lupus familiaris (Dog) (Canis familiaris), UniProt P50997). Briefly: biochemical. The following applies: IC50 inhibition of dog renal Na+/K+ ATPase, purified dog kidney enzyme.
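Further: enzyme preincubated with inhibitor 10 min at 37 °C, then K^+ and ^32P-ATP added for 15 min, released ^32P counted, activity relative to untreated control.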

Source text: Inhibition of Dog Renal Na^+/K^+ ATPase Activity
The compounds were thus tested for their inhibitory effect on the canine renal Na^+/K^+ ATPase enzyme.
Kidneys were excised from 1-3 year-old male beagle dogs (WuXi AppTec, Suzhou Co., Ltd. 1318 Wuzhong Ave., Wuzhong District Suzhou, 215104 P.R. China) under pentobarbital anesthesia (Import Authorization from Italian Health Ministry 0009171-09/04/2015-DGSAF-COD_UO-P, 2015). Kidneys were sliced and the outer medulla was dissected and suspended (1 g/10 ml) in a sucrose-histidine solution containing 250 mM sucrose, 30 mM histidine, and 5 mM EDTA, pH 7.2. The tissue was homogenized by using an Ultra Turrax homogenizer. The sample was centrifuged at 6,000 g for 15 min. Next, the supernatant was decanted and centrifuged at 48,000 g for 30 min. The pellet was suspended in the sucrose-histidine buffer and incubated for 20 min with a sodium-dodecyl-sulphate (SDS) solution dissolved in a gradient buffer containing 25 mM imidazole and 1 mM EDTA, pH 7.5. The sample was layered on the top of a sucrose discontinuous gradient (10, 15, and 29.4%) and centrifuged at 60,000 g for 115 min. The pellet was suspended in the gradient buffer.
Increasing concentrations of the standard ouabain, or tested compound, were incubated with 0.3 μg of purified dog kidney enzyme for 10 min at 37° C. in 120 μl final volume of a medium containing 140 mM NaCl, 3 mM MgCl2, 50 mM Hepes-Tris, 3 mM ATP, pH 7.5. Then, 10 μl of a solution containing 10 mM KCl and 20 nCi of ^32P-ATP (3-10 Ci/mmol, Perkin Elmer) were added. The reaction was allowed to continue for 15 min at 37° C. and then stopped by acidification with 20% v/v ice-cold perchloric acid. ^32P was separated by centrifugation with activated Charcoal (Norit A, Serva) and the radioactivity was counted. The inhibitory activity was expressed as percent of the control samples carried out in the absence of ouabain, or tested compound.

For `C[C@]12CCC(=CCCCN)CC1[C@@H](O)C[C@@H]1[C@@H]2CC[C@]2(C)C(=O)CC[C@@H]12` (mixture of isomers) [CVie209, (EZ)-3-(4-aminobutyliden]-6alpha-hydroxyandrostane-17-one], the IC50 (as a rule, the midpoint of a concentration-inhibition curve) worked out at 0.8 µM.

As to `C[C@]12CCC(=CCC3CCNC3)CC1[C@@H](CO)C(=O)C1C2CC[C@]2(C)C(=O)CCC12` (mixture of isomers) [CVie402, (E,Z)-3-[2-(pirrolidin-3yl)ethyliden]-6alpha-hydroxymethylandrostane-7,17-dione], it took 4.6 µM to reach half-maximal inhibition (IC50).

In turn, `C[C@]12CCC(=CCC3CCNCC3)CC1[C@@H](CO)C(=O)C1C2CC[C@]2(C)C(=O)CCC12` (mixture of isomers) [CVie405, (E,Z)-3-[2-(piperidin-4-yl)ethyliden]-6alpha-hydroxymethylandrostane-7,17-dione] yielded an IC50 of 7.9 µM.

Consider `CNCCCCC=C1CC[C@]2(C)C3CC[C@]4(C)C(=O)CCC4C3[C@H](O)[C@H](CO)C2C1` (mixture of isomers) [CVie406, (E,Z)-3-(5-N-methylaminopentyliden)-6alpha-hydroxymethyl-7alpha-hydroxyandrostane-17-one], for which the IC50 came to 1.9 µM.

`C[C@]12CC=C(CCCCN)CC1[C@@H](O)CC1C2CC[C@]2(C)C(=O)CCC12` (stereo partly drawn) [CVie207, (E)-3-(4-aminobutyl)-6alpha-hydroxyandrost-2-ene-17-one hydroiodide] registered an IC50 of 3.9 µM.

Turning to `C[C@]12CC/C(=C\CC3CCNCC3)CC1[C@@H](O)C[C@@H]1[C@@H]2CC[C@]2(C)C(=O)CC[C@@H]12` (stereo partly drawn) [CVie210, (E)-3-[2-(piperidin-4-yl)ethyliden]-6alpha-hydroxyandrostane-17-one], 13.1 µM corresponded to half-maximal inhibition (IC50).

For the compound `C[C@]12CC/C(=C/CC3CCNCC3)CC1[C@@H](O)C[C@@H]1[C@@H]2CC[C@]2(C)C(=O)CC[C@@H]12` (stereo partly drawn) [CVie211, (Z)-3-[2-(piperidin-4-yl)ethyliden]-6alpha-hydroxyandrostane-17-one], 8.3 µM corresponded to half-maximal inhibition (IC50). This IC50 lies about 1.6-fold lower than the previous one.

On to `CNCCCC/C=C1\CC[C@]2(C)C3CC[C@]4(C)C(=O)CCC4C3C(=O)[C@H](CO)C2C1` (stereo partly drawn) [CVie401, (E,Z)-3-(5-N-methylaminopentyliden]-6alpha-hydroxymethylandrostane-7,17-dione], for which it took 24 µM to reach half-maximal inhibition (IC50).

`C[C@]12CC/C(=C\CC3CNC3)CC1[C@@H](CO)C(=O)C1C2CC[C@]2(C)C(=O)CCC12` (some centres unmarked) [CVie403] returned an IC50 of 2.9 µM.

For the compound `C[C@]12CC[C@H](CCC3CCNC3)CC1[C@@H](CO)C(=O)C1C2CC[C@]2(C)C(=O)CCC12` (stereo partly drawn) [CVie409, 3beta-[2-(pirrolidin-3yl)ethyl]-6alpha-hydroxymethylandrostane-7,17-dione], the IC50 worked out at 3.4 µM.

Compound `C[C@]12CC[C@H](CCC3CCNC3)CC1[C@@H](CO)[C@@H](O)C1C2CC[C@]2(C)C(=O)CCC12` (stereo partly drawn) [CVie410, 3beta-[2-(pirrolidin-3yl)ethyl]6alpha-hydroxymethyl-7alpha-hydroxyandrostane-17-one] registered an IC50 of 3.7 µM.
